Columns and labels:
5-HT2C receptor = target: T1, 5-HT2C receptor (Homo sapiens, UniProt P28335); assay: Radioligand binding assay for 5-HT2C receptor ([3H]-mesulergine competitive binding); conditions: choroid plexus or recombinant 5-HT2C receptor expressed in CHO-K1 cells, read-out: binding affinity to 5-HT2C serotonin receptor expressed as IC50 value
T1 construct: expressed in transfected cells; host or cells: CHO-K1 (or COS-7) cells; alternatively choroid plexus tissue
T1 sequence (P28335 33-458): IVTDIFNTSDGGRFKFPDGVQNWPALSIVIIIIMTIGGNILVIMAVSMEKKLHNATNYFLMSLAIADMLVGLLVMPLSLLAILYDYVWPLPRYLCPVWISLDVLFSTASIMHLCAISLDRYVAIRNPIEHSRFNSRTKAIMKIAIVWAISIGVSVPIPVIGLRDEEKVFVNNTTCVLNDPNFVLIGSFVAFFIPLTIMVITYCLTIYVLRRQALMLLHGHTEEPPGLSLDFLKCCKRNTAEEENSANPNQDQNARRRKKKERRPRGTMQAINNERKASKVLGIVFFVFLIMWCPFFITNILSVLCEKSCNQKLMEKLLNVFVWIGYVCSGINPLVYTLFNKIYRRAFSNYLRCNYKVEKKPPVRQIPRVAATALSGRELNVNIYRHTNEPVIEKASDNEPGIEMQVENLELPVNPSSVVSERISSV
Procedure: (§1) The effect of the compounds of the present invention on the neurochemical steady state was determined by in vitro investigations such as a radionuclide-marked radioligand binding assay for 5-HT2A (Bonhaus D. W. Br. J. Pharmacol. 1995, 115:622; Saucier C. J. Neurochem. 1997, 68:1998) and 5-HT2C receptors (Wolf W. A. J. Neurochem. 1997, 69:1449), in vitro binding assay for σ1 receptor (Thomson W. and Donn R. Arthritis Res. 2002, 4: 302-306) and by in vivo investigations in a tail suspension test (Vogel H. G. and Vogel W. H. Drug Discovery and Evaluation Pharmacological Assays, Springer 1997, 304), in amphethamine-induced hyperlocomotion in mice (Millan M. J. et al, 1998 J Pharmacol. Exp. 7her. 287: 167-186), in a forced swim test in mice (Porsolt R. D. et al. Arch. Int. Pharmacodyn. 1977, 229:327-336), in meta-chlorophenyl piperazine (m-CPP) test on rats (Drug Dev. Res. 1989, 18:119-144), and in apomorphine, tryptamine and norepinephrine (ATN) test in rats (Arch. Int. Pharmacodyn. 1977, 227:238-253). […]
(§2) During incubation the radioligand bound to the receptor. When a binding balance was achieved, the receptors to which the radioligand was bound were separated from those to which said ligand was not bound, and the radioactivity of the receptor/radioligand complex was measured. […]

5-HT2A receptor = target: T2, 5-HT2A receptor (Homo sapiens, UniProt P28223); assay: Radioligand binding assay for 5-HT2A receptor ([3H]-ketanserin competitive binding); conditions: human cortex or recombinant 5-HT2A receptor expressed in CHO-K1 cells, read-out: binding affinity to 5-HT2A serotonin receptor expressed as IC50 value
T2 construct: expressed in transfected cells; host or cells: CHO-K1 (or COS-7) cells; alternatively human cortex tissue
Procedure: as §1, §2

T2 sequence (P28223 whole entry): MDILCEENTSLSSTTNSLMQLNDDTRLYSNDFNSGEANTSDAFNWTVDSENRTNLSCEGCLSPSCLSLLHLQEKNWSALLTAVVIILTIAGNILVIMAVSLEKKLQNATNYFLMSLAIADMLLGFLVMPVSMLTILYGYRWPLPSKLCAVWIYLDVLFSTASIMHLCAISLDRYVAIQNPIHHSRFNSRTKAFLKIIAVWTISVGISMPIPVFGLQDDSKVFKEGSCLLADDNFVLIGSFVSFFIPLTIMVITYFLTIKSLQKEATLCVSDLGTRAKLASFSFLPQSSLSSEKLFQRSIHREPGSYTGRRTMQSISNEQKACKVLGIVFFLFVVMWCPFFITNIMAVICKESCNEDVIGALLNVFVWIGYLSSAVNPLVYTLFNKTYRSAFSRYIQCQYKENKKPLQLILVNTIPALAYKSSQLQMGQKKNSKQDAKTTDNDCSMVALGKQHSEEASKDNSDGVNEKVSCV

IC50 (5-HT2C receptor): < 200 nM | IC50 (5-HT2A receptor): < 200 nM
Structure (SMILES): CN(C)CCCOCc1nc2c(s1)-c1ccccc1Oc1ccc(Cl)cc1-2 [[3-(5-chloro-8-oxa-1-thia-3-aza-dibenzo[e,h]azulen-2-ylmethoxy)-propyl]-dimethyl-amine]
